In patent publication US7816350B2, “Substituted [1,2,3] triazolo[4,5-D]pyrimidines as cdk inhibitors” (Institute of Experimental Botany ASCR, priority 2002, dated 2010):

Legend:
p34^cdc2/cyclin B (CDC2) = target: T1, p34^cdc2/cyclin B (CDC2) (Homo sapiens, UniProt P06493); assay: CDK inhibition assay, p34cdc2/cyclin B kinase, histone H1 phosphorylation; assay type: biochemical
T1 construct: made in house; host or cells: Sf9 insect cells (baculovirus co-infection)
Description: Cyclin-dependent kinases (p34^cdc2, p33^cdk2) and cyclins (cyclin B, E) are produced in Sf9 insect cells coinfected with appropriate baculoviral constructs. The cells are harvested 68-72 hrs post infection in lysis buffer for 30 min on ice and the soluble fraction is recovered by centrifugation at 14.000 g for 10 min. The protein extract is stored at −80° C.
Lysis buffer: 50 mM Tris pH 7.4, 150 mM NaCl, 5 mM EDTA, 20 mM NaF, 1% Tween, 1 mM DTT, 0.1 mM PMSF, leupeptine, aprotonine.
To carry out experiments on kinetics under linear conditions, the final point test system for kinase activity measurement is used. The kinase is added to reaction mixture in such a way as to obtain linear activity with respect to the concentration of enzyme and with respect to time.
The p34^cdc2 and p33^cdk2 kinase inhibition determination involves the use of 1 mg/ml histone H1 (Sigma, type III-S) in the presence of 15 μM [γ-^32P]ATP ([…]) (Amersham) in a final volume of 20 μl. Kinase activity is determined at 30° C. in the kinase buffer.
Tested compounds are usually dissolved to 100 mM solutions in DMSO, final concentration of DMSO in reaction mixture never exceeds 1%. The controls contain suitable dilutions of DMSO.
After 10 min, addition 3×SDS sample buffer stops the incubations. Phosphorylated proteins are separated electrophoretically using 12.5% SDS polyacrylamide gel. The measurement of kinase activity is done using digital image analysis.
The kinase activity is expressed as a percentage of maximum activity, the apparent inhibition constants are determined by graphic analysis (FIG. 1).
Kinase buffer: 50 mM Hepes pH 7.4, 10 mM MgCl2, 5 mM EGTA, 10 mM 2-glycerolphosphate, 1 mM NaF, 1 mM DTT

IκB-α kinase = IκB-α kinase inhibitory activity, in vitro kinase assay; assay type: biochemical

T1 sequence (P06493 whole entry, species assumed): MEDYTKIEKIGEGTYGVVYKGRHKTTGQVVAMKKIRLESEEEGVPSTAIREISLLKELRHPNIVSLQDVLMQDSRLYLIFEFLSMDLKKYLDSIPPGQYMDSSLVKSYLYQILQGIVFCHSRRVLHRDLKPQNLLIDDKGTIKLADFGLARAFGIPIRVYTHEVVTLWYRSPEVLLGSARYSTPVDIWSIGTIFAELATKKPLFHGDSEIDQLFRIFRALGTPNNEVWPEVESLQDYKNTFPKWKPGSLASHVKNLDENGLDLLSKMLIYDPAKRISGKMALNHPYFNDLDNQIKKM
T1 sequence (P14635 whole entry partner, species assumed): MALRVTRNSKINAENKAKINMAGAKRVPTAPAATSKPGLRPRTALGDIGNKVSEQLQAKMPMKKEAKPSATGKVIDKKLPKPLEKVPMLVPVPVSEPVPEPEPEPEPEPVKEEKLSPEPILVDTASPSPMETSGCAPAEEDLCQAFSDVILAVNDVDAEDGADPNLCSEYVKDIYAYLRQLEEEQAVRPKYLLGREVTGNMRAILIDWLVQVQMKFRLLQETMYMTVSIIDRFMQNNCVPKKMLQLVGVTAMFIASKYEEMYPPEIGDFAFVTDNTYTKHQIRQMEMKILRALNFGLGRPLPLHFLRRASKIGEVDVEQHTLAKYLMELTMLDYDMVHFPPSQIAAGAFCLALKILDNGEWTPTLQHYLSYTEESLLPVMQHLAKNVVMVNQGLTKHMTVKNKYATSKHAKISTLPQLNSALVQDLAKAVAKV

Compound | IC50 (p34^cdc2/cyclin B (CDC2)) [µM] | IC50 (IκB-α kinase) [µM]
CC[C@H](CO)Nc1nc(N(C)CCc2ccc(O)c(O)c2)c2nnn(C(C)C)c2n1 | > 100 | > 100
CC(=O)Oc1cccc(CNc2nc(NCCO)nc3c2nnn3C)c1 | 48 | 50
Cn1nnc2c(Nc3ccc(O)c(C(=O)O)c3)nc(NCCO)nc21 | 58 | > 100
CC[C@H](CO)Nc1nc(NCc2cccc(C(C)=O)c2)c2nnn(C(C)C)c2n1 | 58 | > 100
CC[C@H](CO)Nc1nc(NCc2c(O)cc(Cl)cc2O)c2nnn(C(C)C)c2n1 | 12 | 
COc1cc(O)c(CNc2nc(NCCO)nc3c2nnn3C)cc1O | 22 | 
CC(C)[C@H](CO)Nc1nc(N(C)CCc2ccc(O)c(O)c2)c2nnn(C(C)C)c2n1 |  | > 100
Cn1nnc2c(Nc3ccc(Br)cc3)nc(NCCO)nc21 | > 100 | > 100
Cn1nnc2c(NCc3cccc(Cl)c3O)nc(NCCO)nc21 | 70 | > 100
CC[C@H](CO)Nc1nc(NCc2ccccc2)c2nnn(C)c2n1 |  | > 100
CC[C@H](CO)Nc1nc(NCc2ccc(Cl)c(N)c2N)c2nnn(C(C)C)c2n1 | 45 | > 100
Cn1nnc2c(NCc3ccccc3)nc(N(CCO)CCO)nc21 |  | > 100
CC[C@H](CO)Nc1nc(NCc2ccc(Cl)c(N)c2)c2nnn(C(C)C)c2n1 | 29 | > 100
Cn1nnc2c(Nc3ccccc3)nc(NCCO)nc21 [2-hydroxyethylamino / anilino / methyl] | 42 | > 100
COc1cc(O)c(CNc2nc(NCCO)nc3c2nnn3C)c(O)c1 | 18.2 | 
CC[C@H](CO)Nc1nc(Nc2ccccc2)c2nnn(C(C)C)c2n1 | 29 | 70
Cn1nnc2c(NCc3cccc(O)c3)nc(NCCO)nc21 | 17 | 40
CC[C@H](CO)Nc1nc(Nc2cc(N)cc(Cl)c2)c2nnn(C(C)C)c2n1 | 28 | 75
Cn1nnc2c(Nc3ccc(Cl)c(C(=O)O)c3)nc(NCCO)nc21 | 43 | > 100
CC(C)[C@H](CO)Nc1nc(NCc2ccccc2)c2nnn(C)c2n1 | 50 | > 100
CC(C)[C@H](CO)Nc1nc(NCc2ccccc2)c2nnn(C(C)C)c2n1 | 15 | 50
CC(=O)Oc1ccccc1CNc1nc(NCCO)nc2c1nnn2C | 36 | 40

Compound | IC50 (p34^cdc2/cyclin B (CDC2)) [µM] | IC50 (IκB-α kinase) [µM]
CC[C@H](CO)Nc1nc(NCc2ccccc2OC(C)=O)c2nnn(C(C)C)c2n1 | 19 | > 100
CC(C)[C@H](CO)Nc1nc(NCc2ccc(Cl)c(N)c2)c2nnn(C(C)C)c2n1 | 30 | > 100
CC(C)[C@H](CO)Nc1nc(NC(CO)c2ccccc2)c2nnn(C(C)C)c2n1 (mixture of isomers) | 50 | > 100
Cn1nnc2c(NCc3c(O)cc(Cl)cc3O)nc(NCCO)nc21 | 22 | > 100
CC[C@H](CO)Nc1nc(NCc2cccc(OC)c2O)c2nnn(C(C)C)c2n1 | 15 | 75
CC[C@H](CO)Nc1nc(Nc2ccc(Cl)c(C(=O)O)c2)c2nnn(C(C)C)c2n1 | 40 | > 100
CN(Cc1ccc(O)c(O)c1)c1nc(NCCO)nc2c1nnn2C |  | > 100
Cn1nnc2c(NCc3ccc(Cl)c(N)c3)nc(NCCO)nc21 | 50 | 
CC(C)[C@H](CO)Nc1nc(NCc2ccc(O)c(O)c2)c2nnn(C(C)C)c2n1 | 20 | > 100
CC(C)[C@H](CO)Nc1nc(NCc2c(O)cc(Cl)cc2O)c2nnn(C(C)C)c2n1 | 18 | 
CC(C)[C@H](CO)Nc1nc(NCc2ccc(Cl)c(N)c2N)c2nnn(C(C)C)c2n1 | 34 | > 100
CC[C@H](CO)Nc1nc(NCc2cc(O)c(Cl)cc2O)c2nnn(C(C)C)c2n1 | 16 | > 100
CCC(CO)Nc1nc(NC(CO)c2ccccc2)c2nnn(C(C)C)c2n1 (centres unmarked) |  | > 100
Cn1nnc2c(NCc3c(N)cccc3Cl)nc(NCCO)nc21 | 52 | 68
Cc1cccc(CNc2nc(NCCO)nc3c2nnn3C)c1O | 85 | > 100
CC(C)n1nnc2c(NCc3ccccc3)nc(NCCO)nc21 | > 100 | > 100
Cn1nnc2c(Nc3ccc(C(=O)O)c(Cl)c3)nc(NCCO)nc21 | 52 | > 100
Cn1nnc2c(Nc3cccc(Cl)c3)nc(NCCO)nc21 |  | > 100
Cn1nnc2c(NCc3ccc(O)c(O)c3)nc(NCCO)nc21 |  | > 100
CC[C@H](CO)Nc1nc(NCc2ccccc2C(C)=O)c2nnn(C(C)C)c2n1 | 37 | > 100
CC(C)[C@H](CO)Nc1nc(Nc2ccc(C(=O)O)c(Cl)c2)c2nnn(C(C)C)c2n1 | 25 | 
Cn1nnc2c(NCc3ccccc3)nc(NCCCN)nc21 | 90 | > 100

Compound | IC50 (p34^cdc2/cyclin B (CDC2)) [µM] | IC50 (IκB-α kinase) [µM]
CC[C@H](CO)Nc1nc(Nc2ccc(N)c(Cl)c2)c2nnn(C(C)C)c2n1 | 50 | > 100
Cn1nnc2c(NCc3ccccc3)nc(NCCO)nc21 | > 100 | > 100
COc1cccc(CNc2nc(NCCO)nc3c2nnn3C)c1O | 43 | > 100
CC[C@H](CO)Nc1nc(N(C)Cc2ccc(O)c(O)c2)c2nnn(C(C)C)c2n1 |  | > 100
COc1cccc(CNc2nc(N[C@@H](CO)C(C)C)nc3c2nnn3C(C)C)c1O | 55 | > 100
CC(C)[C@H](CO)Nc1nc(NCc2ccc(Cl)c(O)c2O)c2nnn(C(C)C)c2n1 | 11 | > 100
Cn1nnc2c(NCc3ccccc3)nc(NC3CCCCC3N)nc21 (centres unmarked) | 25 | 70
CC[C@H](CO)Nc1nc(NCc2cc(O)c(OC)cc2O)c2[nH]nc(C(C)C)c2n1 | 12 | > 100
CC[C@H](CO)Nc1nc(NCc2ccc(O)c(O)c2)c2nnn(C(C)C)c2n1 | 40 | > 100
CC[C@H](CO)Nc1nc(NCc2ccccc2)c2nnn(C(C)C)c2n1 [2-[1(R)-Hydroxymethylpropylamino]-6-benzylamino-9-isopropyl-8-azapurine] |  | > 100
CC[C@H](CO)Nc1nc(Nc2ccc(C(=O)O)c(Cl)c2)c2nnn(C(C)C)c2n1 | 35 | 70
Cn1nnc2c(NCc3ccc(Cl)c(N)c3N)nc(NCCO)nc21 | 68 | > 100
CC[C@H](CO)Nc1nc(Nc2ccc(Cl)cc2)c2nnn(C(C)C)c2n1 | 27 | 
CC[C@H](CO)Nc1nc(NCc2c(N)cccc2Cl)c2nnn(C(C)C)c2n1 | 31 | > 100
CC[C@H](CO)Nc1nc(NCc2ccccc2O)c2nnn(C(C)C)c2n1 | 14 | 80
COc1cc(O)c(CNc2nc(N[C@@H](CO)C(C)C)nc3c2nnn3C(C)C)c(O)c1 | 10 | > 100
CC[C@H](CO)Nc1nc(Nc2ccc(Br)cc2)c2nnn(C(C)C)c2n1 | 26 | 90
CC(C)n1nnc2c(NCc3ccccc3)nc(NC3CCC(N)CC3)nc21 (centres unmarked) | 3.7 | 48
CC[C@H](CO)Nc1nc(NCc2c(O)cc(OC)cc2O)c2nnn(C(C)C)c2n1 | 17 | > 100
Cn1nnc2c(NCc3ccccc3O)nc(NCCO)nc21 | 23 | 45
CCC(CO)Nc1nc(NCc2cccc(Cl)c2O)c2nnn(C(C)C)c2n1 (centres unmarked) | 16 | 
